Laboratory results: PMC11898605, “Selective Azapeptide CD36 Ligand MPE-298 Regulates oxLDL-LOX-1-Mediated Inflammation and Mitochondrial Oxidative Stress in Macrophages” (Cells, 2025)

Columns and labels:
RAW264.7 cells [1] = test: Mitochondrial membrane potential (JC-1) in RAW264.7 cells; type: cell-based, murine; conditions: for effect of inhibitor on oxLDL-elicited mitochondrial membrane depolarization: Figures S4D, 5G; for effect of inhibitor on MPE-298's reversal of oxLDL-elicited mitochondrial membrane depolarization: SSO 100 μM, PP1 3 μg/mL, 2-BP 100 μM, BI-0115 5 μM, Figure 5D,G
Protocol: For the measurement of the mitochondrial membrane potential (ΔΨM), treated cells were incubated in HBSS with 5,5′,6,6′-tetrachloro-1,1′,3,3′-tetraethylbenzimidazolylcarbocyanine iodide (JC-1, 5 μM), a membrane-permeable cationic dye (Invitrogen-Life Technologies, Carlsbad, CA, USA). After 20 min, cells were extensively washed with HBSS. Fluorescence from aggregated JC-1 was measured with an excitation wavelength of 550 nm and emission wavelength of 600 nm, and fluorescence from JC-1 monomer was detected with an excitation wavelength of 485 nm and emission wavelength of 535 nm. The ΔΨM was determined from the ratio of intensities at 600 nm and 535 nm.

RAW264.7 cells [2] = test: mtROS production (MitoSOX Red) in RAW264.7 cells; type: cell-based, murine; conditions: for effect of inhibitor on oxLDL-elicited mtROS production: 30 min pre-exposure, oxLDL 25 μg/mL 4 h, Figures S4C, 5F; for effect of inhibitor on MPE-298's inhibition of oxLDL-elicited mtROS production: SSO 100 μM, PP1 3 μg/mL, cytochalasin D 2 μg/mL, 2-BP 100 μM, BI-0115 5 μM, Figure 5A,B,F
Protocol: RAW264.7 cells (17,000 cells/well) or M1 BMDM (60,000 cells/well) in complete medium (RPMI 1640 supplemented with 10% FBS and 1% penicillin/streptomycin), were seeded in 96-well tissue culture plates and incubated overnight at 37 °C in 5% CO2. On the day of experimentation, cells were starved in RPMI medium supplemented with 1% penicillin/streptomycin and 0.2% BSA for 1 h. Cells were first pretreated with MPE-298 for 1 h and stimulated or not with oxLDL for 4 h. In other experiments, cells were preincubated with inhibitors as indicated in the figure legends prior to MPE-298 incubation and oxLDL stimulation. After the stimulation period, cells were washed with Hanks’ balanced salt solution (HBSS, Wisent Inc.) and incubated with a mixture of MitoSOX Red (5 μM), a mitochondrial superoxide indicator, and Hoechst-33342 (4 μM), a nuclear staining dye, for 20 min at 37 °C. The fluorescence intensities were analyzed using a Synergy2 (BioTek) microplate reader with the following filter sets: excitation/emission at 510/580 nm for MitoSox and 350/461 nm for Hoechst-33342. Fluorescence intensity of MitoSox was normalized by fluorescence intensity of Hoescht-33342.

CD36 = target: T1, CD36 (Mus musculus, UniProt Q08857); test: BRET-based CD36 internalization assay; type: cell-based; conditions: 30 min pretreatment: PP1 3 μg/mL, cytochalasin D 2 μg/mL, piceatannol 40 μM, 2-bromopalmitate 100 μM, SSO 100 μM, BI-0115 5 μM; then ligand 15 min
T1 construct: CD36 ORF was amplified from pCMV3-mCD36-GFPSpark; expressed in transfected cells; host or cells: J774A.1 murine macrophages, transiently co-transfected with mCD36-RlucII and rGFP-CAAX
Description: For the construction of mouse CD36-RlucII, CD36 ORF was amplified from pCMV3-mCD36-GFPSpark using the 5′-primer NheI-CD36-Forward: […] and 3′-primer HindIII-CD36-Reverse: […] primers to introduce NheI and HindIII digestion sites sequences. The final product was subcloned in-frame into NheI/HindIII of pcDNA3.1/hygromycin (+) plasmid containing the RlucII [19]. The rGFP-CAAX plasmid, constructed as previously described, was kindly provided by Dr. Stephane Laporte.
For the BRET assay, J774A.1 cells were seeded in a 96-well plate (white, flat bottom) at a density of 35,000 cells/well in DMEM supplemented with 10% FBS and 1% penicillin/streptomycin. Cells were grown at 37 °C in 5% CO2 and 90% humidity. The next day, the culture medium was changed to DMEM 10% FBS and 0.2% penicillin/streptomycin, supplemented with 5-azacytidine (1 μM) for 2 h. Cells were transiently transfected using a mixed solution containing mCD36-RlucII plasmid (25.6 ng), rGFP-CAAX plasmid (31.7 ng), and pcDNA3.1(+) for a total of 80 ng cDNA/well. TransIT-X2® reagent was used at a cDNA-to-reagent ratio of 1 μg to 4 μL. Twenty-four hours later, cells were starved for 2 h in Tyrode’s buffer (140 mM NaCl, 2.7 mM KCl, 1 mM CaCl2, 12 mM NaHCO3, 5.6 mM D-glucose, 0.5 mM MgCl2, 0.37 mM NaH2PO4, and 25 mM HEPES, pH 7.4) supplemented with 0.01% BSA. Luminescence was induced with Prolume Purple (1.5 μM final) for 2 min in Tyrode’s buffer. Luminescence signal was measured using a Tecan Spark Multimode microplate reader (Tecan Trading AG, Männedorf, Switzerlnd) in the BRET2 mode with filter sets of 420/70 nm and 515/30 nm for detecting RlucII and rGFP signals, respectively. The BRET ratio was determined as follows: [(intensity emitted by the rGFP/intensity emitted by the Rluc2) − (intensity emitted by the rGFP/intensity emitted by the Rluc2 for the CD36-RLuc2 control cells)].
For kinetic study, transiently co-transfected J774A.1 cells were incubated at different times with MPE-298 (100 nM) or oxLDL (25 μg/mL). In experimental protocols involving pharmacological inhibitors, cells transiently co-transfected were pretreated with PP1 (3 μg/mL), cytochalasin D (2 μg/mL), piceatannol (40 μM), 2-bromopalmitate (100 μM), SSO (100 μM), and BI-0115 (5 μM) for 30 min. CD36 internalization was then induced with MPE-298 and oxLDL for 15 min. For the BRET saturation studies, the cells were transiently transfected with a fixed concentration of mCD36-RlucII plasmid (25.6 ng) and increasing concentrations of rGFP-CAAX plasmid ranging from 0 to 77 ng for 24 h.

RAW264.7 cells [3] = test: ATTO-465-MPE-298 internalization in RAW264.7 cells; type: cell-based, murine; conditions: 30 min pretreatment with PP1 3 μg/mL, PP2 3 μg/mL or cytochalasin D 2 μg/mL, ATTO-465-MPE-298 500 nM 15 min, acid wash, n = 3 in triplicate
Protocol: RAW 264.7 cells (ATCC) were seeded at 125,000 cells per well in a 96-well plate and allowed to adhere overnight in Roswell Park Memorial Institute Medium (RPMI, Wisent Inc, Saint-Jean-Baptiste, QC, Canada) supplemented with 10% FBS and 1% penicillin/streptomycin at 37 °C in 5% CO2. The cells were weaned off FBS for 2 h in RPMI-25mM Hepes, supplemented with 1% penicillin/streptomycin and 0.2% BSA. The kinetics of ligand internalization (incubation at 37 °C) and plasma membrane bound (incubation at 4 °C) were initiated by adding ATTO-465-MPE-298 at different time points. After incubation, the cells were washed 3 times with cold PBS to determine the total fluorescence and the cell surface bounds or with sodium acetate pH 4 buffer at 4 °C to assess the internalized fraction, followed by lysis in 0.5N NaOH/0.05% sodium dodecyl sulfate (SDS). For the characterization of the endocytosis pathways elicited by MPE-298, cells were pretreated with specific inhibitors 30 min before adding the fluorescent peptide as the tracer. Briefly, after being weaned off FBS, the cells were preincubated at 37 °C in 5% CO2 with cytochalasin D (2 μg/mL), as an inhibitor of actin polymerization, and with PP1 (3 μg/mL) and PP2 (3 μg/mL), as inhibitors of Src kinases. After 30 min of incubation, ATTO-465-MPE-298 was added for an additional 15 min. The fluorescence was analyzed with excitation/emission wavelengths at 510/580 nm using a BioTek Synergy2 (Agilent, Santa Clara, CA, USA)microplate reader.

CCL2 = CCL2 secretion, ELISA; type: cell-based, mouse; conditions: RAW264.7, SSO 100 μM, Figure 4G
Protocol: RAW264.7 cells were seeded at a density of 150,000/well in 48-well plates. The next day, the cells were weaned for 4 h in DMEM supplemented with 0.2% BSA, exposed to MPE-298 or oxLDL or the combination of MPE-298 and oxLDL, and incubated at 37 °C in 5% CO2 for 16 h. After the incubation period, media were collected and assessed for CCL2 chemokine using a mouse ELISA detection kit (Invitrogen-Life Technologies, Carlsbad, CA, USA) following the manufacturer’s instructions. For experiments using inhibitors, the cells were pre-exposed to SSO for 30 min prior to stimulation with MPE-298 or oxLDL.

JNK (Thr183/Tyr185) = test: Western blot of JNK phosphorylation in RAW264.7 cells; type: cell-based, murine; conditions: preincubation before oxLDL, BI-0115 5 μM, SSO 100 μM, Figures 7A, S5
Protocol: (§1) Murine RAW264.7 cells or M1 BMDMs were seeded in 6-well plates. The next day, cells were starved for 4 h and treated with MPE-298 (100 nM) or oxLDL (25 μg/mL) for the indicated times. Cells were washed with cold PBS, then lysed for 30 min in ice-cold radioimmunoprecipitation assay buffer (RIPA) (150 mM NaCl, 50 mM Tris-HCl, 1% Triton X-100, 0.2% SDS, 50 mM NaF, and 2 mM EDTA, pH 7.4) containing protease and phosphatase inhibitors (Pierce Biotechnology, Waltham, MA, USA). Cell lysates were centrifuged at 15,000× g for 20 min at 4 °C.
(§2) The protein concentration of supernatants was determined by a bicinchoninic acid (BCA) assay (Pierce Biotechnology, Waltham, MA, USA). Equal amounts of protein extracts were separated on 4–12% SDS–polyacrylamide gels and transferred to polyvinylidene difluoride (PVDF) membranes (Bio-Rad Laboratories, Hercules, CA, USA) for immunoblotting. Membranes were blotted with primary antibodies p47phox and Rac1/2/3 for phosphorylated Syk (Tyr348), as well as SRC family kinases (Tyr416), Lyn (Tyr397), JNK (Thr183/Tyr185), and p66Shc (Ser36). […] Immunoblotted bands were detected by enhanced chemiluminescence with West Femto chemiluminescent substrate (Thermo Scientific, Waltham, MA, USA) using a ChemiDoc MP Imaging System (Bio-Rad Laboratories, Hercules, CA, USA). […]

p66Shc (Ser36) = test: Western blot of p66Shc phosphorylation in RAW264.7 cells; type: cell-based, murine; conditions: preincubation before oxLDL, BI-0115 5 μM, SSO 100 μM, Figures 7A, S5
Protocol: as §1, §2

How did the “effect of inhibitor on oxLDL-elicited mitochondrial membrane depolarization” value (RAW264.7 cells [1]) turn out when `CCCCCCCCCCCCCCC(Br)C(=O)O` (centres unmarked) [2-BP, 2-bromohexadecanoic acid] was run?
The value was “prevented”.

And the “effect of inhibitor on MPE-298's reversal of oxLDL-elicited mitochondrial membrane depolarization” value (RAW264.7 cells [1])?
The value was “did not block”.

And the “effect of inhibitor on oxLDL-elicited mtROS production” value (RAW264.7 cells [2])?
The value was “neither SSO nor PP1 and 2-BP altered”.

And the “effect of inhibitor on MPE-298's inhibition of oxLDL-elicited mtROS production” value (RAW264.7 cells [2])?
Its value is “blocked”.

What about the “effect of inhibitor pretreatment on MPE-298- and oxLDL-induced loss of BRET signal” value (CD36) of the same compound?
The value was “abolish”.

Which results are given for `Cc1ccc(-c2nn(C(C)(C)C)c3ncnc(N)c23)cc1` [PP1]?
effect of inhibitor on oxLDL-elicited mitochondrial membrane depolarization (RAW264.7 cells [1]): prevented; effect of inhibitor on MPE-298's reversal of oxLDL-elicited mitochondrial membrane depolarization (RAW264.7 cells [1]): did not block; decrease of uptake of fluorescently labeled MPE-298 (RAW264.7 cells [3]): 45%; effect of inhibitor on oxLDL-elicited mtROS production (RAW264.7 cells [2]): neither SSO nor PP1 and 2-BP altered; effect of inhibitor on MPE-298's inhibition of oxLDL-elicited mtROS production (RAW264.7 cells [2]): blocked the protective effect; effect of inhibitor pretreatment on MPE-298- and oxLDL-induced loss of BRET signal (CD36): completely abolished

For `CC(C)(C)n1nc(-c2ccc(Cl)cc2)c2c(N)ncnc21` [PP2], which “decrease of uptake of fluorescently labeled MPE-298” value (RAW264.7 cells [3]) is on record?
Its value is 41%.

Which “effect of inhibitor on oxLDL-elicited mitochondrial membrane depolarization” value (RAW264.7 cells [1]) does the source give for `CCCCCCCC/C=C\CCCCCCCC(=O)ON1C(=O)CC(S(=O)(=O)O)C1=O` (centres unmarked) [SSO, sulfosuccinimidyl oleate] here?
The value was “prevented”.

And the “effect of inhibitor on MPE-298's reversal of oxLDL-elicited mitochondrial membrane depolarization” value (RAW264.7 cells [1])?
The value was “did not block”.

And the “effect of preincubation on oxLDL-induced CCL2 secretion” value (CCL2; 30 min preincubation)?
Its value is “unaltered”.

What about the “effect of pre-exposure on MPE-298's effects on oxLDL-triggered CCL2 release” value (CCL2) of the same compound?
Its value is “completely abolished”.

What about the “effect of inhibitor on oxLDL-elicited mtROS production” value (RAW264.7 cells [2]) of the same compound?
The value was “neither SSO nor PP1 and 2-BP altered”.

And the “effect of inhibitor on MPE-298's inhibition of oxLDL-elicited mtROS production” value (RAW264.7 cells [2])?
The value was “blocked the protective effect”.

What about the “effect on oxLDL-induced JNK phosphorylation” value (JNK (Thr183/Tyr185)) of the same compound?
The value was “did not prevent”.

And the “effect of inhibitor pretreatment on MPE-298- and oxLDL-induced loss of BRET signal” value (CD36)?
The value was “completely abolished”.

And the “effect on oxLDL-induced p66Shc phosphorylation” value (p66Shc (Ser36))?
Its value is “did not prevent”.

How did the “effect of inhibitor on oxLDL-elicited mitochondrial membrane depolarization” value (RAW264.7 cells [1]) turn out when `C=C1[C@@H](C)[C@H]2[C@H](Cc3ccccc3)NC(=O)[C@]23[C@H](OC(C)=O)/C=C/[C@@](C)(O)C(=O)[C@@H](C)C/C=C/[C@H]3[C@@H]1O` [cytochalasin D] was run?
Its value is “prevented”.

And the “decrease of uptake of fluorescently labeled MPE-298” value (RAW264.7 cells [3])?
The value was 53%.

And the “effect of inhibitor on MPE-298's inhibition of oxLDL-elicited mtROS production” value (RAW264.7 cells [2])?
The value was “blocked the protective effect”.

What about the “effect of inhibitor pretreatment on MPE-298- and oxLDL-induced loss of BRET signal” value (CD36) of the same compound?
The value was “completely abolished”.

For `Oc1cc(O)cc(/C=C/c2ccc(O)c(O)c2)c1` [piceatannol], which “effect of inhibitor pretreatment on MPE-298- and oxLDL-induced loss of BRET signal” value (CD36) is on record?
Its value is “completely abolished”.
